Measurements published in ChEMBL document CHEMBL1201862, “PubChem BioAssay data set” (2004).
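Compound exposure: 48 hours, 5 concentrations, 96-well plates. Abbreviation: GI50, concentration required for 50% inhibition of growth.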 Calls of active or inactive are those of the source. Rule as the data show it: active = GI50 up to about 1.1 µM and inactive = higher.

Key:
Assay in all cases: NCI anticancer screen, dose series, 48 h
Malme-3M = tested on: Malme-3M
A498 = tested on: A498
OVCAR-5 = tested on: OVCAR-5
TK-10 = tested on: TK-10
SK-MEL-28 = tested on: SK-MEL-28
SK-MEL-5 = tested on: SK-MEL-5
HOP-92 = tested on: HOP-92
SN12C = tested on: SN12C
IGROV-1 = tested on: IGROV-1
NCI-H23 = tested on: NCI-H23
SF-295 = tested on: SF-295
HL-60 = tested on: HL-60
UO-31 = tested on: UO-31
NCI-H522 = tested on: NCI-H522
MDA-N = tested on: MDA-N
NCI-H226 = tested on: NCI-H226
SW-620 = tested on: SW-620
MCF7 = tested on: MCF7
786-0 = tested on: 786-0
DMS-273 = tested on: DMS-273

Structure (SMILES)	GI50 (Malme-3M)	GI50 (A498)	GI50 (OVCAR-5)	GI50 (TK-10)	GI50 (SK-MEL-28)	GI50 (SK-MEL-5)	GI50 (HOP-92)	GI50 (SN12C)	GI50 (IGROV-1)	GI50 (NCI-H23)	GI50 (SF-295)	GI50 (HL-60)	GI50 (UO-31)	GI50 (NCI-H522)	GI50 (MDA-N)	GI50 (NCI-H226)	GI50 (SW-620)	GI50 (MCF7)	GI50 (786-0)	GI50 (DMS-273)
CC(CCC(=O)O)(c1cc(Br)c(O)c(Br)c1)c1cc(Br)c(O)c(Br)c1	58.9 µM (inactive)	30.5 µM (inactive)	> 100 µM (inactive)	> 100 µM (inactive)	45 µM (inactive)	29.4 µM (inactive)	> 100 µM (inactive)	> 100 µM (inactive)	88.3 µM (inactive)	47.4 µM (inactive)	98.4 µM (inactive)	21.4 µM (inactive)	66.7 µM (inactive)	39.6 µM (inactive)	70 µM (inactive)	31.3 µM (inactive)	84.3 µM (inactive)	70.6 µM (inactive)	> 100 µM (inactive)	–
COc1cc(/C=C2/CCS(=O)(=O)c3ccc(C)cc3C2=O)cc(OC)c1OC	3.63 µM (inactive)	5.78 µM (inactive)	5.87 µM (inactive)	5.37 µM (inactive)	3.59 µM (inactive)	2.53 µM (inactive)	4.18 µM (inactive)	3.66 µM (inactive)	4.06 µM (inactive)	3.64 µM (inactive)	14.1 µM (inactive)	1.41 µM (inactive)	5.75 µM (inactive)	3.39 µM (inactive)	4.29 µM (inactive)	6.34 µM (inactive)	4.76 µM (inactive)	4.19 µM (inactive)	3.3 µM (inactive)	–
CC(C)OC(=O)c1ccc(CCC2=CC(=O)C=CC2=O)cc1	6.92 µM (inactive)	23 µM (inactive)	18 µM (inactive)	9.73 µM (inactive)	13.5 µM (inactive)	15 µM (inactive)	5.05 µM (inactive)	11.3 µM (inactive)	13.9 µM (inactive)	13.2 µM (inactive)	29.4 µM (inactive)	0.773 µM (active)	4.5 µM (inactive)	1.9 µM (inactive)	10.4 µM (inactive)	15.9 µM (inactive)	4.69 µM (inactive)	15.5 µM (inactive)	4.22 µM (inactive)	–
CC(=O)OC1COC(N2C(=O)C(=O)c3cc(Br)c([N+](=O)[O-])cc32)C(OC(C)=O)C1OC(C)=O (stereo not drawn)	71 µM (inactive)	–	> 100 µM (inactive)	> 100 µM (inactive)	86.5 µM (inactive)	> 100 µM (inactive)	34.8 µM (inactive)	> 100 µM (inactive)	> 100 µM (inactive)	55 µM (inactive)	> 100 µM (inactive)	31 µM (inactive)	–	48.8 µM (inactive)	–	> 100 µM (inactive)	> 100 µM (inactive)	–	> 100 µM (inactive)	> 100 µM (inactive)
CCN(CC)C1C(=O)NC1C#Cc1ccccc1 (stereo not drawn)	98.4 µM (inactive)	> 100 µM (inactive)	> 100 µM (inactive)	> 100 µM (inactive)	> 100 µM (inactive)	26.4 µM (inactive)	18.9 µM (inactive)	> 100 µM (inactive)	67.5 µM (inactive)	71.4 µM (inactive)	> 100 µM (inactive)	36.6 µM (inactive)	> 100 µM (inactive)	25 µM (inactive)	57.3 µM (inactive)	> 100 µM (inactive)	69.5 µM (inactive)	49.2 µM (inactive)	> 100 µM (inactive)	–
Cc1ccc(NC(=O)CCc2nnc3s/c(=C\c4cccc([N+](=O)[O-])c4)c(=O)n23)cc1	> 100 µM (inactive)	> 100 µM (inactive)	> 100 µM (inactive)	> 100 µM (inactive)	> 100 µM (inactive)	> 100 µM (inactive)	85.3 µM (inactive)	> 100 µM (inactive)	> 100 µM (inactive)	> 100 µM (inactive)	59.2 µM (inactive)	–	> 100 µM (inactive)	52.6 µM (inactive)	–	> 100 µM (inactive)	19.3 µM (inactive)	–	40.4 µM (inactive)	> 100 µM (inactive)
CCOC(=O)c1cc(C)nc2c1c(=O)n(-c1ccccc1)c(=O)n2CCCCN1CCN(c2ncccn2)CC1	> 100 µM (inactive)	20.8 µM (inactive)	> 100 µM (inactive)	> 100 µM (inactive)	> 100 µM (inactive)	35.2 µM (inactive)	34.6 µM (inactive)	> 100 µM (inactive)	> 100 µM (inactive)	> 100 µM (inactive)	> 100 µM (inactive)	25.4 µM (inactive)	38.5 µM (inactive)	> 100 µM (inactive)	> 100 µM (inactive)	> 100 µM (inactive)	> 100 µM (inactive)	> 100 µM (inactive)	> 100 µM (inactive)	–
